In patent US9315532B2, “Fatty acid carbohydrate hybrid molecules as therapeutic agents and methods thereof” (The Johns Hopkins University, priority 2005, dated 2016):

Key:
Assay type in all cases: cell-based, human
[1] = test system: p21WAF1; assay: Endogenous p21WAF1 assay (anti-p21WAF1 antibody, flow cytometry) in Jurkat cells
Procedure: Endogenous expression of p21^WAF1 was detected following a reported procedure (58) with minor modifications. Jurkat cells (5.0×10^6 cells in 10 mL medium) were incubated with either ethanol or 1 (250 μM or 5 (2.5 mM). On a daily basis, aliquots of cells (˜1.0×10^6 per sample) were taken, washed with PBS (2×1.0 mL), fixed with Reagent A (Fix and Perm Kit, Caltag Laboratories, CA, Cat. No. GAS-003) for 10 min at room temperature, washed with washing buffer (PBS containing 5.0% FBS, 0.1% NaN3), re-suspended in 95% v/v methanol and kept on ice. After 30 min, cells were again washed with washing buffer and incubated with FITC-conjugated anti-p21^WAF1 antibody (Calbiochem, San Diego, Calif., Cat. No. OP64F) at 2.0 μg/mL in Reagent B (100 μL) (Fix and Perm Kit, Caltag Laboratories) for 1.0 h at room temperature in the dark. Finally, cells were re-suspended in washing buffer (500 μL) and analyzed by flow cytometry. Three replicate samples were taken for each condition and 10,000 events were counted for each sample.

[2] = test system: Jurkat cells; assay: Toxicity and growth inhibition assays (cell counts on days 3, 5 and 15)
Procedure: For cell culture studies, But4ManNAc (1) (50) was used as a mixture of anomers (α/β=10/90), But4GlcNAc (2) as pure α-anomer and But5Man (3) as pure β-anomer (It is noteworthy that the intracellular hydrolysis of butyrate esters makes the anomeric configuration less relevant in these studies and we found similar cellular effects between the α- and β-anomers in long term toxicity). Stock solutions of the sugar analogs were made in ethanol at concentrations of 10 mM and 50 mM. In the case of cells growing in suspension the solutions of 1-4 (or an ethanol control at an equivalent volume) were coated onto dishes and the ethanol was allowed to evaporate prior to plating. Unless otherwise noted, throughout this study Jurkat cells (Clone E-6, ATCC, Manassas, Va.) were cultured in RPMI 1640 medium supplemented with 300 mg/L glutamine, 5.0% fetal bovine serum (HyClone, Logan, Utah) and 1.0% of a 100× dilution of a pen/strep stock solution containing penicillin (100 units/mL) and streptomycin (100 μg/mL); HL-60 cells (ATCC, Manassas, Va.) were cultured in RPMI 1640 medium supplemented with 10% FBS and pen/strep; and AD293 (HEK) cells (Stratagene, La Jolla, Calif.) were grown in DMEM medium with 10% FBS and pen/strep. In all cases, cells were incubated in a standard 37° C. in a 5.0% CO2, water-saturated environment. Cell counting was performed with a Beckman-Coulter Z2 particle counter and hemacytometer.
Solutions of the analogs in EtOH (10 mM stock) were coated onto 24-well plates at a range of concentrations from 0-320 μM and ethanol was allowed to evaporate. Jurkat cells (1.0×10^5 cells) in 0.5 mL of medium were plated in each well (day 0). On days 3 and 5, fresh medium (1.0 mL) was added to each well. Cell cultures were mixed by gentle pipetting and 100 μL of cell suspension was taken from each well and counted. On days 7, 9, 11, 13 and 15, 1.0 mL of cell suspension was removed from each well after thorough mixing and fresh medium (1.0 mL) was added. Cells were counted on day 15 and the cell density was plotted as a percentage of control (as was done for cell counts from days 3 and 5).

[3] = test system: p21WAF1/Cip1 promoter; assay: Luc-p21WAF1/Cip1 luciferase reporter gene assay in AD293 (HEK) cells
Procedure: The plasmid Luc-p21^Cip1/WAF1 (a gift from Vogelstein Laboratory, JHMI, Baltimore, Md.) was amplified and purified utilizing a plasmid maxi kit (Cat. No. 12163. Qiagen, Valencia, Calif.) following the manufacturer's protocol. HEK cells (2.5×10^5) were seeded in 3.0 mL medium and grown in 6-well T. C. plates. Transfection was performed using lipofectamine 2000 (Cat. No. 11668-019, Invitrogen, Carlsbad, Calif.) following the protocol supplier's protocol. Cells were trypsinized 24 h after transfection and seeded at 250,000 cells per well with concentrations of 1-4 shown in FIG. 3a or 1, 5, and ManNAc plus 5 at the concentrations shown in FIG. 3c. After 72 h, the cells were trypsinized, counted and lysed in 300 μL of luciferase cell culture lysis buffer and diluted five-fold in the same buffer. Luminometry was performed utilizing the ‘Luciferase Assay System’ (Cat. No. 1500, 4550, Promega, Madison, Wis.) following supplier's protocol. Luciferase Assay Reagent (100 μL) was added to the cell lysate (20 μL) in luminometer tubes (Cat. No. 55.476, Sarstedt, Newton, N.C.) and the luminescence was measured immediately using a Berthold Sirius Luminometer. The final values were normalized relative to ethanol-treated controls and reported on a per cell basis.

[4] = test system: Jurkat cells; assay: Flow cytometry analysis of cell cycle status (PI/RNase A)
Procedure: The cell cycle arrest induced by butyrate analogs was studied following the standard protocol (49). Briefly, Jurkat cells (2.3×10^5 cells/mL) were incubated with various concentrations of 1 (0, 25, 50, 75, 100, 150 and 200 μM); 2 (200 μM); 3 (200 μM); and 4 (200 μM) for five days. The cells were then harvested, counted, washed twice with PBS, re-suspended in PBS (500 μL), added to a cold solution of 78% aqueous ethanol (4.5 mL) using a glass Pasteur pipette and kept at 2.0° C. for at least 24 h. The fixed cells were centrifuged twice to remove the ethanol completely, re-suspended in propidium iodide (PI)/ribonuclease A (RNase A) staining buffer (BD Pharmingen, Catalog No. 550825, San Diego, Calif.) (500 μL for 1.0×10^6 cells), incubated at 37° C. for 15 min and analyzed by flow cytometry. The cellular aggregates were excluded from single cell populations using an area-width plot (FL2—PT fluorescence) for the cell cycle status determination. At least 10,000 gated events were counted for each determination.
Jurkat cells (2.5×10^5 cells/mL) were incubated with either ethanol (0.2%) or 1 (100 μM or 200 μM). Aliquots of cell suspensions were taken on day 0 and days 2-6, washed with PBS (twice) and fixed in 75% ethanol at 2.0° C. for at least 48 h. The cells were stained with PI/RNase staining buffer and analyzed by flow cytometry as given above.

Structure (SMILES): CCCC(=O)OC[C@H]1OC(OC(=O)CCC)[C@@H](NC(C)=O)[C@@H](OC(=O)CCC)[C@@H]1OC(=O)CCC (stereo partly drawn) [compound 1, 2-Acetylamino-2-deoxy-1,3,4,6-tetra-O-butanoyl-α,β-D-mannopyranoside]
- fold lower concentration for endogenous p21WAF1/Cip1 gene activation than sodium n-butyrate (5) [1]: ~10 ×
- endogenous p21WAF1 levels ([1]; one week, 1 at 250 μM, 5 at 2.5 mM): increased p21^WAF1 levels
- long term growth characteristics (day 15) ([2]; Jurkat cells, 0-320 μM, day 15): induces both growth arrest and cell death
- concentration at which essentially all cells died by day 15 ([2]; Jurkat cells, day 15): ≥ 80 µM
- range for bioactivity ([2]; ManNAc and butyrate combined in the same molecule): 50 to 100 µM
- concentration level required for p21WAF1/Cip1 activation [3]: micromolar level efficiency
- gain in efficiency for 1 over 5, relative to the ~10× of the endogenous p21 assay ([3]; luc-p21WAF1/Cip reporter assay): even greater
- cell cycle status at lower concentrations ([4]; Jurkat cells, 0-75 μM, 5 days): stepwise decrease in G0/G1 accumulation with a concomitant increase in cells at the G2/M stage
- population of apoptotic cells (DNA content) ([4]; Jurkat cells, 0-200 μM, five days): dose dependent increase in population of apoptotic cells
- cell cycle status, time course ([4]; Jurkat cells, 100 μM, until day 6): strong cell cycle inhibition at the G2/M stage
- cell cycle status, time course ([4]; Jurkat cells, 200 μM): accumulated more rapidly at the G2/M stage
- cell cycle status / apoptosis ([4]; Jurkat cells, 200 μM, 5 days): majority of cells treated with 1 appeared to be apoptotic
- cells with DNA in the sub G0 range ([4]; Jurkat cells, 200 μM, day 4): substantial proportion
- cells with DNA in the sub G0 range ([4]; Jurkat cells, 200 μM, day 6): almost complete
- concentration above which non-viable cells (sub G0) accumulated ([4]; Jurkat cells, 5 days): exceeded 75 μM
- apoptosis versus cell cycle arrest (summary) ([4]; human cancer cells): efficiently induced apoptosis
